The record followed here is a melting point compilation (Tetko et al.; mined from patent text by program, amines drawn as free bases though some values may be those of a salt).

The melting point is the temperature of the solid-liquid transition. The molecule `CSC(C(=O)N1CCOCC1)c1cccc(C(=O)c2ccccc2)c1N` (stereo not given) yielded a melting point of 119 to 121 °C.
Then `COc1ccc(/C=C/c2cc(/C=C/c3ccc4cc[nH]c4c3)n[nH]2)cc1OCc1ccccn1`, with 110 to 117 °C; and `COC(=O)CN(C)c1nc(-c2ccc(Cl)c(Cl)c2)cs1`, with 88 to 89 °C.
In turn, `CN1CCN(C2=Nc3ccccc3Nc3cscc32)CC1` showed a melting point of 200 to 201 °C.
In the case of `CN(C)c1ccc(/C=C/c2c(F)cccc2F)c([N+](=O)[O-])c1`, the melting point fell in the range of 152 to 153 °C.
Molecule `OCc1ccc(-c2ccc(-c3cn([C@H]4CN5CCC4CC5)nn3)s2)cc1` showed a melting point of 253 °C.
To `CC(=O)Nc1ccc(C=CC(=O)C2C(=O)OC(=O)C(C(C)=O)=C2O)cc1` (stereo not given) belongs 230 to 231 °C; to `CCOC(=O)c1ccc(SC)c(Cl)c1N(CC)S(C)(=O)=O`, 70.5 to 73.5 °C; to `COc1cc(C(F)(F)F)nn1-c1ccc(NC(=O)c2ccccc2F)cc1`, 167 to 168 °C.
As for `O=C1C(=CN2CCCC2)c2ccccc2N1c1cccc(Cl)c1`, the melting point fell in the range of 108 to 112 °C.
To `Cc1ccsc1-c1nc(COc2ccc(CCCCn3ccnc3)cc2)co1` belongs 88 to 89 °C.
To `Cn1ccc2cc(-c3csc4ncnc(NCc5ccccn5)c34)ccc21` belongs 184 to 185 °C.
For `CC(C)(O)CC1c2ccccc2C(=O)N1CC(=O)O` (stereo not given), the melting point was in the range of 198 to 199 °C.
To `COc1ccc(C2CCN(C)CC2)cc1Nc1ncc2ccc(-c3ccccc3N(C)S(C)(=O)=O)n2n1` belongs 93 to 99 °C; to `Cc1nnc(CN2C(=O)c3ccccc3C2=O)n1-c1ccc(Cl)cc1C(=O)c1ccccc1`, 215 to 218 °C; to `CC(C)(C)OC(=O)N1Cc2c(-c3noc(C4CC4)n3)ncn2-c2ccccc21`, 204 °C.
To `CON=C(c1ccccc1)c1ccccc1N` belongs 138 °C.
The molecule `COC(=O)[C@H](c1ccccc1Cl)N1CCc2sc(OC(=O)COc3ccccc3)cc2C1` returned a melting point of 104 to 106 °C.
Molecule `C=CCOC(=O)N1CCCC(OC)C1CC(=O)Cn1cnc2cc(Br)c(Cl)cc2c1=O` (stereo not given) registered a melting point of 112 °C.
As for `COc1ccc(S(=O)(=O)c2c(-c3ccccc3)oc3ccccc23)cc1`, the melting point lay in the range of 146 to 148 °C.
`O=S(=O)(Nc1ccc2c(OCc3ccc(-c4ccc(F)cc4)cc3F)cccc2c1)C(F)(F)F` had a melting point of 134 to 136 °C.
Then `CC1CC(=O)NN=C1c1ccc(N2CCN(c3ncccn3)CC2)c([N+](=O)[O-])c1` (stereo not given), with 232 to 233 °C; and `Cc1cc(C2=NN(C)C(=O)C2)c(Cl)cc1Cl`, with 196 to 198 °C.
Turning to `Brc1nc2cncnc2n1Cc1ccccc1`, the melting point fell in the range of 119 to 121 °C.
Then `CC(C)(C)NS(=O)(=O)c1c(CO)nsc1OCC(F)(F)F`, with 113 to 116 °C.
Then `Cc1cc(Oc2ccc([N+](=O)[O-])cc2C(F)(F)F)nn1C(=O)NC(C)C`, with 90 to 92 °C.
On to `CC(=O)SC[C@@H](C(=O)N[C@H](CC(C)C)c1nnn[nH]1)C(F)(F)F`, for which the melting point fell in the range of 180 to 184 °C.
Molecule `CCOC(=O)C(=O)CC(=O)c1cn(Cc2ccc(OC)cc2)c2ccccc2c1=O` had a melting point of 154 to 156 °C.
Then `NC(=O)C1CCN(CC=Cc2ccccc2)CC1`, with 190 to 192 °C.
For `O=C(O)CCCN1C(=O)c2ccc(C(=O)O)cc2C1=O`, the melting point was in the range of 218 to 220 °C.
To `CSc1nnc(-c2ccco2)s1` belongs 128 °C; to `CSc1ccc(NC(C#N)c2ccc(OC(F)F)cc2)cc1` (stereo not given), 98 to 99 °C.
`CCCn1nc(C2CC2)c(C(N)=O)c1Cc1ccc(-c2ccccc2S(=O)(=O)NC(=O)c2ccccc2)cc1` had a melting point of 187 to 191 °C.
Then `CCCCOc1cc(/C=C/S(=O)(=O)NC(=O)OC(C)(C)C)n(Cc2ccc(Cl)cc2Cl)n1`, with 152 to 153 °C; and `COc1nccc2c1COC2=O`, with 90 °C.
